# Patent publication US20220348878A1, “CELL PROLIFERATION INHIBITOR” (BOURBON CORPORATION, priority 2019, published 2022)
# Assays:
# Type in all cases: cell-based
# [1] = system: Human mesenchymal stem cell; test: Culture test with medium exchange every three days (Example 2), cell count; conditions: for Number of cells: Glutamic acid: 8 mM, average of three wells
# Procedure: (§1) Human mesenchymal stem cells (manufactured by Lonza, Catalog No. PT-5006) were cultured in a cell culture dish (100-mm culture dish, obtained from SANPLATEC CO., LTD.) coated with 10 μg/ml Fibronectin (Promocell) at 37° C. in the presence of 5% CO2, and used. As the medium, the DMEM basal medium was used.
# (§2) After cell culture, the cells were recovered using a 0.1% by weight trypsin/1 mM EDTA solution, and seeded on a 12-well plate (obtained from Corning Co., Ltd.), and cultured overnight at 37° C. in the presence of 5% CO2 using the above DMEM basal medium.
# (§3) The DMEM basal medium was replaced with the desired cell maintenance medium, and the cells were cultured (“Day 0 after culture”). No medium exchange was performed during the culture period.
# The same culture test as in Example 1 was conducted except that the medium was exchanged every three days during the culture period.
# Tables 1 to 2 indicate the number of cells for each culture day. […] Note that the number of cells is an average of the numbers of cell counts in three wells, and the counts is measured by the following method.
# (§4) After removing the culture supernatant of the cells by suction and washing the cells by using PBS, the cells were peeled off by using 0.1% trypsin/1 mM EDTA solution (FUJIFILM Wako Pure Chemical Corporation). The reaction of the releasing solution was stopped by adding the medium, and the cells were recovered. And then, the cell counts was conducted by using the Countess™ II Automated Cell Counter (Thermo Fisher Scientific).
# Human fibroblasts = test: Test for confirming cell proliferation inhibitory effect (Example 1), phase-contrast observation of cell state; conditions: Day 9, no medium exchange; for Cell state: number of dead cells and cell proliferation: 1 mM, 5 mM or 8 mM glutamic acid
# Procedure: Human fibroblasts (Catalog No. CC-2511) were cultured in a gelatin-coated cell culture dish (100-mm culture dish, obtained from SANPLATEC CO., LTD.) at 37° C. in the presence of 5% CO2, and used. As the medium, the DMEM basal medium was used.
# as §2, §3
# (§5) Further, the same culture test as described above was conducted except that 1 mM, 5 mM or 8 mM of glutamic acid was added to the basal medium for cell culture.
# Human fibroblast = test: Culture test with medium exchange every three days (Example 2), cell count; conditions: for Number of cells: Glutamic acid: 8 mM, average of three wells
# Procedure: As the medium, the DMEM basal medium was used.
# After cell culture, the cells were recovered using a 0.1% by weight trypsin/1 mM EDTA solution, and seeded on a 12-well plate (obtained from Corning Co., Ltd.), and cultured overnight at 37° C. in the presence of 5% CO2 using the above DMEM basal medium. […]
# Note that the number of cells is an average of the numbers of cell counts in three wells, and the counts is measured by the following method.
# as §4
# [2] = system: Human mesenchymal stem cells; test: Test for confirming cell proliferation inhibitory effect (Example 1), phase-contrast observation of cell state; conditions: Day 9, no medium exchange; for Cell state: number of dead cells and cell proliferation: 1 mM, 5 mM or 8 mM glutamic acid
# Procedure: as §1, §2, §3, §5
# [3] = system: Human mesenchymal stem cell; test: Culture test with medium exchange every three days (Example 2), cell count; conditions: w/o Glc medium instead of w/Glc medium; Glutamic acid 8 mM; FIG. 3, Day 12
# [4] = glucose-free DMEM basal medium (w/o Glc)
# [5] = xylose DMEM basal medium (w/Xy)
compound,measurement,setting,value
"N[C@@H](CCC(=O)O)C(=O)O [Glutamic acid, glutamic acid]",Number of cells,"[1]; Medium: w/Glc, Day 0",0.356 ×10^4 cells/cm^2
same,Number of cells,"[1]; Medium: w/Glc, Day 3",1.12 ×10^4 cells/cm^2
same,Number of cells,"[1]; Medium: w/Glc, Day 6",2.96 ×10^4 cells/cm^2
same,Number of cells,"[1]; Medium: w/Glc, Day 9",3.23 ×10^4 cells/cm^2
same,Number of cells,"[1]; Medium: w/Glc, Day 12",3.75 ×10^4 cells/cm^2
same,Number of cells,"[1]; Medium: w/Glc, Day 15",4.46 ×10^4 cells/cm^2
same,Number of cells,"[1]; Medium: w/Glc, Day 18",5.37 ×10^4 cells/cm^2
same,Number of cells,"[1]; Medium: w/Xy, Day 0",0.356 ×10^4 cells/cm^2
same,Number of cells,"[1]; Medium: w/Xy, Day 3",0.855 ×10^4 cells/cm^2
same,Number of cells,"[1]; Medium: w/Xy, Day 6",0.998 ×10^4 cells/cm^2
same,Number of cells,"[1]; Medium: w/Xy, Day 9",1.65 ×10^4 cells/cm^2
same,Number of cells,"[1]; Medium: w/Xy, Day 12",1.87 ×10^4 cells/cm^2
same,Number of cells,"[1]; Medium: w/Xy, Day 15",2.77 ×10^4 cells/cm^2
same,Number of cells,"[1]; Medium: w/Xy, Day 18",3.90 ×10^4 cells/cm^2
same,Number of cells,"[1]; Medium: w/o Glc, Day 0",0.356 ×10^4 cells/cm^2
same,Number of cells,"[1]; Medium: w/o Glc, Day 3",0.591 ×10^4 cells/cm^2
same,Number of cells,"[1]; Medium: w/o Glc, Day 6",0.662 ×10^4 cells/cm^2
same,Number of cells,"[1]; Medium: w/o Glc, Day 9",1.06 ×10^4 cells/cm^2
same,Number of cells,"[1]; Medium: w/o Glc, Day 12",1.04 ×10^4 cells/cm^2
same,Number of cells,"[1]; Medium: w/o Glc, Day 15",1.50 ×10^4 cells/cm^2
same,Number of cells,"[1]; Medium: w/o Glc, Day 18",1.58 ×10^4 cells/cm^2
same,Cell proliferation inhibition compared with the control test with w/Glc medium,"[1]; w/Glc medium, Glutamic acid 8 mM, from Table 2",it was possible to inhibit the cell proliferation till 18 days after
same,Cell proliferation inhibitory effect,"[1]; w/Xy medium instead of w/Glc medium, Glutamic acid 8 mM, from Table 2",the cell proliferation inhibitory effect was remarkable
same,Cell state: number of dead cells and cell proliferation,Human fibroblasts; [4],the number of dead cells decreased and cell proliferation was inhibited as the glutamic acid concentration increased
same,Dead cells observed,"Human fibroblasts; w/Xy, glutamic acid concentration 1 to 8 mM",dead cells were hardly observed
same,Cell state: number of dead cells and cell proliferation,Human fibroblasts; [5],the number of dead cells decreased and cell proliferation was inhibited as the glutamic acid concentration increased
same,Number of cells,"Human fibroblast; Medium: w/G1c, Day 0",0.07 ×10^5 cells/cm^2
same,Number of cells,"Human fibroblast; Medium: w/G1c, Day 6",0.56 ×10^5 cells/cm^2
same,Number of cells,"Human fibroblast; Medium: w/G1c, Day 12",1.46 ×10^5 cells/cm^2
same,Number of cells,"Human fibroblast; Medium: w/G1c, Day 18",1.72 ×10^5 cells/cm^2
same,Number of cells,"Human fibroblast; Medium: w/Xy, Day 0",0.07 ×10^5 cells/cm^2
same,Number of cells,"Human fibroblast; Medium: w/Xy, Day 6",0.37 ×10^5 cells/cm^2
same,Number of cells,"Human fibroblast; Medium: w/Xy, Day 12",1.13 ×10^5 cells/cm^2
same,Number of cells,"Human fibroblast; Medium: w/Xy, Day 18",1.28 ×10^5 cells/cm^2
same,Number of cells,"Human fibroblast; Medium: w/o G1c, Day 0",0.07 ×10^5 cells/cm^2
same,Number of cells,"Human fibroblast; Medium: w/o G1c, Day 6",0.27 ×10^5 cells/cm^2
same,Number of cells,"Human fibroblast; Medium: w/o G1c, Day 12",0.08 ×10^5 cells/cm^2
same,Cell proliferation inhibition compared with the control test with w/Glc medium,"Human fibroblast; w/Glc medium, Glutamic acid 8 mM, from Table 1",the cell proliferation was inhibited till 6 days after
same,Cell proliferation inhibitory effect,"Human fibroblast; w/Xy medium instead of w/Glc medium, Glutamic acid 8 mM, from Table 1","the cell proliferation inhibitory effect was remarkable, and it was possible to inhibit the cell proliferation for a longer period"
same,Number of cells and dead cells,"Human fibroblast; w/o Glc medium instead of w/Glc medium, Glutamic acid 8 mM, from Table 1","the number of cells after 12 days was remarkably less, and the dead cells occurred"
same,Cell state: number of dead cells and cell proliferation,[2]; [4],the number of dead cells decreased and cell proliferation was inhibited as the glutamic acid concentration increased
same,Dead cells observed,"[2]; w/Xy, glutamic acid concentration 5 to 8 mM",dead cells were hardly observed
same,Cell state: number of dead cells and cell proliferation,[2]; [5],the number of dead cells decreased and cell proliferation was inhibited as the glutamic acid concentration increased
same,Condition of cells (whitening around cells),[3],"the ratio of whitening around cells ware large, and the conditions of cells deteriorated"
